Key:
rats [1] = assay: Forced swimming test in rat model, compound C-11 versus fluoxetine, Example 41; format: in vivo
Procedure: (§1) The rats were placed in a cylindrical jar 24 hours before administration to accommodate the underwater environment for 15 min. On the day of the behavioral test, animals were administered twice and administered orally 4 h and 1 h before the behavioral test. The rats were individually placed in a cylindrical glass jar, timed for 6 minutes, and the number of arm lift was recorded within the last 2 minutes. The rats were then placed in a cylindrical glass jar having 30 cm high and 20 cm in diameter. […] Water temperature was 23° C.-25° C.

[2] = system: C57 mice susceptible to social defeat by CD-1 aggressive mice; assay: Social defeated stress (SDS) model, Example 42; format: in vivo; conditions: 10 mg/kg gavage every day
Procedure: Male CD-1 aged 4-6 months mice which had passed childbearing age were raised separately, allowed to eat freely and adapt to the environment for about one week. Male C57 mice (aged 8-20 weeks differently) were used to screen for aggressive CD-1 mice. The mice screened by C57 were placed directly in the cage of CD-1 for 3 minutes, and the latency period for CD-1 to start showing offensive was recorded, and then the mice screened by C57 were moved out. For each CD-1 mouse, the same C57 was used to screen it three times a day, and different C57-selected mice were selected every day for a total of three days of screening. […] After screening for CD-1 aggressive mice for modeling, each C57 test mouse was exposed to different CD-1 aggressive mice for 10 consecutive days, 10 minutes each day. […] After 10 minutes of contact, the test mice were isolated from the invaders. Test mice and aggressive mice were placed in adjacent sections of the same squirrel cage, separated by a porous transparent plastic baffle, allowing test mice to be exposed under a threatening chronic stress stimulation for the next 24 hours. The control mice were placed in cages having the same structure, but the other side of the baffle was placed with other mice of the same line that were replaced daily. After 24 hours after the end of the last day of the experiment, we evaluated CSDS-induced social behavioral changes and selected all susceptible mice based on previous reports. The social interaction ratio (SI ratio) was calculated according to the following formula: SI ratio=time for the mouse in the interaction area when the aggressor exists/time for the mouse in the interaction area when the aggressor is absent. […] All selected test mice and control mice were then housed individually for 3 weeks. […] The mice in the vehicle group were administered by gavage with 0.5% CMC-Na every day. The SI ratio was assessed once a week.
Two-way ANOVA was used to analyze and LSD method was used for the multiple comparisons of calibration results. The data were expressed in Mean sem. […]

ICR mice [3] = assay: Forced swimming test (FST), Example 38; format: in vivo; conditions: gavage 10 mg/Kg for 6 days, t-test
Text: Forced swimming test (FST) to investigate the antidepressant activity of some compounds and some natural products of the present invention
(§2) Male ICR mice (body weight, 20±2 g) used in the experiment were purchased from the Experimental Animal Center of Shanghai Institute of Materia Medica, Chinese Academy of Sciences. They were free access to water and kept at room temperature (23 2) ° C. in natural light. All mice were randomly divided into a blank control group and a test group, with 10 mice in each group and 5 mice/cage. The experiment was started after 3 days of adaptation in the breeding environment. The mice were fasted for 12 hours before the experiment but free access to water. The specific administration method was gavage administration, and the administration dose of the administration group was 10 mg/Kg, and the blank control group was given an equal volume of 0.5% CMC-Na.
Specific procedures: The mice were continuously administered for 6 days, and tested 1 hour after the last administration. Firstly, the spontaneous activity of the mice was measured by the open field method, that is, the mice were individually placed in a cylindrical glass jar for 4 minutes, and the number of lifting arms within the last two minutes was recorded. The mice were then individually placed in a cylindrical glass jar (20 cm high and 14 cm in diameter) with a water depth of 10 cm and a water temperature of 23° C. to 25° C. After mice entered into water, a 6-minute timing was conducted, the cumulative immobility time (the criteria for determining immobility: the mice stopped struggling in the water, or floated with only small limb movements to keep the head float on the water) within the last four minutes was recorded. Each group of mice was operated in parallel.
(§3) Experimental data processing: The experimental results were expressed as mean standard error (x SD). Statistical analysis was performed using t-test to determine whether it was significant. […] Then, the t-test was performed on the experimental index of forced swimming to determine whether it had antidepressant effect.

ICR mice [4] = assay: Toxicity observed during antidepressant efficacy screening (FST and TST animal batch); format: in vivo; conditions: same animal batch as efficacy screening, gavage 10 mg/Kg
Text: as §2
as §2, with “The specific administration method was gavage administration, and the administration dose of the administration group was 10 mg/Kg, and the blank control group was given an equal volume of 0.5% CMC-Na.” left out

mice [5] = assay: Forced swimming test in mouse model, compound C-11 versus fluoxetine, Example 40; format: in vivo; conditions: FIG. 1
Procedure: as §1, with “The mice were placed” for “The rats were placed”, “test. The mice were individually” for “test. The rats were individually”, “minutes. The mice were then” for “minutes. The rats were then”, “C.-25° C. After the mice entered into the water, a 6-minute video was taken. […] Each group of mice was operated in parallel.” for “C.-25° C.”

ICR mice [6] = assay: Tail suspension test (TST), Example 39; format: in vivo; conditions: gavage 10 mg/Kg for 6 days, t-test
Text: Tail Suspension Test (TST) to Investigate the Antidepressant Activity of Some Compounds and Some Natural Products of the Present Invention
as §2, with “dose” for “dose of the administration group”
Specific procedures: The mice were continuously administered for 6 days, and tested 1 hour after the last administration. Firstly, the spontaneous activity of the mice was measured by the open field method, that is, the mice were individually placed in a cylindrical glass jar for 4 minutes, and the number of lifting arms within the last 2 minutes was recorded. Then the tail of the mice was stick onto the horizontal bar by the tape at 2 cm from the tip of the tail, and the animal eyesight was separated by the surrounding plates. The horizontal bar was about 25 cm from the ground, so that the mouse was about 10 cm from the ground, and the timing was 6 min. The cumulative immobility time within the last 4 minutes was recorded. Each group of mice was operated in parallel.
as §3, with “tail suspension test” for “forced swimming”

rats [7] = assay: Tail suspension test in rat model, compound C-11 versus fluoxetine, Example 41; format: in vivo
Procedure: On the day of the behavioral test, animals were dosed twice and administered orally 4 h and 1 h before the behavioral test. During the experiment, the tail of the rat was hung on a tail suspension test stand about 15 cm away from the ground with a tape or a clip at about 1 cm away from the tail end. […] The experimental time for each group was 6 minutes.

mice [8] = assay: Tail suspension test in mouse model, compound C-11 versus fluoxetine, Example 40; format: in vivo; conditions: FIG. 2
Procedure: On the day of the behavioral test, animals were dosed twice and administered orally 4 h and 1 h before the behavioral test. During the experiment, the tail of the mouse was hung on a tail suspension test stand about 15 cm away from the ground with a tape or a clip at about 1 cm away from the tail end. The mice struggled to overcome the abnormal posture, but appeared intermittent immobility after a period of activity showing disappointment state. The experimental time for each group was 6 minutes. Since most of the mice struggled actively for the first two minutes, the immobility time within the last four minutes was recorded.

[9] = Acta Pharmacologica Sinica 2014; 35 (9): 1188-1198; cited from earlier work
[10] = dose 3.46 mg/kg oral, vs vehicle group, FIG. 3
[11] = rats, oral 4 h and 1 h before the test, dose not given
[12] = mice, oral 4 h and 1 h before the test, vs blank group

Row | SMILES | effect on immobility time of rats in forced swimming test (rats [1]; dose 1.73 mg/kg oral, vs vehicle group, FIG. 3) | effect on immobility time of rats in forced swimming test (rats [1]; [10]) | effect on wall climbing behavior / wall climbing time of rats in forced swimming test (rats [1]; [10]) | effective dose compared with fluoxetine (rats [1]; rat forced swimming test, FIG. 3) | effect on cumulative immobility time of rats in the forced swimming test (in words) (rats [1]; [11]) | duration of oral administration that effectively alleviates depressive symptoms [2] | effect on immobility time of mice in forced swimming test compared with the blank group (in words) (ICR mice [3]) | toxicity observed (ICR mice [4]) | effect on cumulative immobility time of mice in the forced swimming test (in words) (mice [5]; [12]) | effective dose compared with fluoxetine (mice [5]; mouse forced swimming test) | effect on immobility time of mouse in tail suspension test compared with the blank group (in words) (ICR mice [6]) | effect on cumulative immobility time of rats in tail suspension test (rats [7]; dose 3.46 mg/kg oral, vs vehicle group, FIG. 4) | effective dose compared with fluoxetine (rats [7]; rat tail suspension test, FIG. 4) | effect on immobility time of rats in tail suspension test (in words) (rats [7]; [11]) | effect on cumulative immobility time of the mouse in tail suspension test (in words) (mice [8]; [12]) | effective dose compared with fluoxetine (mice [8]; mouse tail suspension test) | toxicity [9]
1 | C[C@H]1CC[C@@]2(OC1)O[C@H]1C[C@H]3[C@@H]4CC[C@@H]5C[C@H](NC(=O)NC6CCCCC6)CC[C@]5(C)[C@H]4CC[C@]3(C)[C@H]1[C@@H]2C [compound C-11] | significantly reduce the immobility time | significantly reduce the immobility time | significantly increases the wall climbing time | significantly lower than that of the positive drug fluoxetine | significantly reduced the cumulative immobility time | 1-2 weeks | extremely significant antidepressant activity | No significant toxicity was observed | significantly reduced the cumulative immobility time | only half of that of fluoxetine | extremely significant antidepressant activity | significantly reduce the cumulative immobility time | significantly lower than that of the positive drug fluoxetine | significantly reduced the immobility time | significantly reduced the cumulative immobility time | only half of that of fluoxetine | 
2 | C[C@H]1CC[C@@]2(OC1)O[C@H]1C[C@H]3C4CC[C@@H]5C[C@@H](O[C@@H]6OC(CO)[C@H](O)[C@H](O)C6O[C@@H]6OC(CO)[C@@H](O)[C@H](O)C6O)CC[C@]5(C)C4CC[C@]3(C)C1[C@@H]2C (stereo partly shown) [timosaponin A3, reference compound] |  |  |  |  |  |  | could not significantly reduce the immobility time |  |  |  | significant antidepressant activity |  |  |  |  |  | significant toxicity

Source: patent US11142543B2 (priority 2016, dated 2021)
